According to patent US20250282760A1 (Merck Sharp & Dohme LLC, priority 2022, published 2025):

Biological target: T1, human OX2R (Homo sapiens, UniProt O43614)
T1 construct: expressed in transfected cells; host or cells: Chinese hamster ovary (CHO) cells, kept under G418 selection
T1 sequence (O43614 1-444): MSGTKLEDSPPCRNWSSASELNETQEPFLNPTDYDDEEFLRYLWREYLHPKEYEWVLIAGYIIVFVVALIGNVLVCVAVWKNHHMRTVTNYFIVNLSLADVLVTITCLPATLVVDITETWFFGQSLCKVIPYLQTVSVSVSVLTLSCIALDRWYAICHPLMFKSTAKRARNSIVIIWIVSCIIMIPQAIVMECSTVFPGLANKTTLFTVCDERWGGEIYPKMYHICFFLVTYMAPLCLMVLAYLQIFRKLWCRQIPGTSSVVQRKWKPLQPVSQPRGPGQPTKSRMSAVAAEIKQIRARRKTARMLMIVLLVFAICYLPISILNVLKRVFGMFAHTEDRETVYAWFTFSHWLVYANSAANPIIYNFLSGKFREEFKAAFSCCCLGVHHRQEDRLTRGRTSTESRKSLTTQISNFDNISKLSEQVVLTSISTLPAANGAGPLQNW
Experiment: IPOne (IP-1 accumulation) assay of orexin receptor agonist activity in CHO cells expressing human OX2R
Type: cell-based
Settings: for IC50: CHO cells expressing human OX2R, IP-One assay, 2 hours incubation, four parameter logistic fit, read-out: hOX2R_IP IC50; for Emax: CHO, percent activity at maximum tested concentration, relative to reference compound at 1 uM (100% activity) for human OX2R
Excerpt: The utility of the compounds in accordance with the present invention as orexin receptor OX1R and/or OX2R agonists may be readily determined without undue experimentation by methodology well known in the art. Both the OX1R and/or OX2R G-coupled protein receptors (GPCRs) couple through the Gαq signaling pathway, which ultimately promotes calcium mobilization via inositol triphosphate (IP3) production. […] The utility of the compounds in accordance with the present invention as orexin receptor OX1R and/or OX2R agonists may be determined utilizing this assay.
In a typical experiment, the OX1 and OX2 receptor agonist activity is determined in accordance with the following general experimental method. Chinese hamster ovary (CHO) cells expressing human OX1R and/or the human OX2R were grown in Iscove's modified DMEM containing glutaMAX™, 1% G418, 100 U/mL penicillin, 100 μg/mL streptomycin and 10% heat-inactivated qualified fetal bovine serum (FBS). […] During this incubation, IP-one detection reagents were prepared (38:1:1 lysis buffer:D2:AB-cryptate reagents).
For each compound, data were fit to a four parameter logistic fit (ActivityBase software) and the EC50 was reported as the inflection point of the resulting curve. Percent effect for each test compound was determined as the percentage of sample raw value/mean max effect, where the mean max effect was derived from the mean raw value of 32 control wells per assay plate (using Orexin A (cat #003-30) at 1 μM for human OX1R and a reference compound at 1 uM with 100% activity previously established by comparison to Orexin A for human OX2R). The intrinsic orexin receptor agonist activity of a compound which may be used in the present invention may be determined by these assays.

Structure (SMILES) | IC50 [nM] | Emax [%]
CC(C)C(=O)N1CCN(S(=O)(=O)c2ccccc2)CC1C(=O)NCc1ccc2ccccc2c1 (stereo not drawn) [Example 10-4, 1-isobutyryl-N-(naphthalen-2-ylmethyl)-4-(phenylsulfonyl)piperazine-2-carboxamide] | 2610 | 98.7
O=C(NCc1ccc2ccccc2c1)C1CN(S(=O)(=O)c2ccccc2)CCN1C(=O)c1cccs1 (stereo not drawn) [Example 6, N-(naphthalen-2-ylmethyl)-4-(phenylsulfonyl)-1-(thiophene-2-carbonyl)piperazine-2-carboxamide] | 2260 | 94.3
CCC(F)(F)Oc1ccc(CNC(=O)[C@H]2CN(S(=O)(=O)c3ccccc3)C[C@@H](C)N2C(=O)C(C)C)cc1 (single isomer, unassigned) [Example 61, cis-N-(4-(1,1-difluoropropoxy)benzyl)-1-isobutyryl-6-methyl-4-(phenylsulfonyl)piperazine-2-carboxamide] | 100 | 93.2
CC(C)C(=O)N1[C@H](C)CN(S(=O)(=O)c2ccccc2)C[C@@H]1C(=O)NCc1ccc(-c2ccco2)cc1F (relative stereo) [Example 32, cis-N-(2-fluoro-4-(furan-2-yl)benzyl)-1-isobutyryl-6-methyl-4-(phenylsulfonyl)piperazine-2-carboxamide] | 58.5 | 99.9
O=C(NCc1ccc2ccccc2c1)C1CN(S(=O)(=O)c2ccccc2)CCN1C(=O)c1ccsc1 (stereo not drawn) [Example 10-8, N-(naphthalen-2-ylmethyl)-4-(phenylsulfonyl)-1-(thiophene-3-carbonyl)piperazine-2-carboxamide] | 4670 | 90
CC(C)C(=O)N1[C@H](C)CN(S(=O)(=O)c2ccccc2)C[C@@H]1C(=O)NCc1ccc2ccccc2c1 (relative stereo) [Example 19-1, cis-1-isobutyryl-6-methyl-N-(naphthalen-2-ylmethyl)-4-(phenylsulfonyl)piperazine-2-carboxamide] | 245 | 100

Other lines, results leading:

IC50 [nM] | Emax [%] | Structure (SMILES)
1010 | 20.6 | CC(C)C(=O)N1C(C)CN(S(=O)(=O)c2ccccc2)CC1C(=O)NCc1ccc(-c2cccnc2)cc1 (stereo not drawn) [Example 42-2, 1-isobutyryl-6-methyl-4-(phenylsulfonyl)-N-(4-(pyridin-3-yl)benzyl)piperazine-2-carboxamide]
5720 | 60.1 | Cc1ccc(S(=O)(=O)N2CCN(C(=O)c3cccs3)C(C(=O)NCc3ccc4ccccc4c3)C2)cc1 (stereo not drawn) [Example 89-1, N-(naphthalen-2-ylmethyl)-1-(thiophene-2-carbonyl)-4-tosylpiperazine-2-carboxamide]
5030 | 94.5 | O=C(NCc1ccc2ccccc2c1)C1CN(S(=O)(=O)c2ccccc2F)CCN1C(=O)c1cccs1 (stereo not drawn) [Example 89-11, 4-[(2-fluorophenyl)sulfonyl]-N-[(naphthalen-2-yl)methyl]-1-(thiophene-2-carbonyl)piperazine-2-carboxamide]
2600 | 99.7 | COc1ccc(S(=O)(=O)N2CCN(C(=O)c3cccs3)C(C(=O)NCc3ccc4ccccc4c3)C2)cc1 (stereo not drawn) [Example 89-7, 4-[(4-methoxyphenyl)sulfonyl]-N-[(naphthalen-2-yl)methyl]-1-(thiophene-2-carbonyl)piperazine-2-carboxamide]
1010 | 4.39 | CC(C)C(=O)N1C(C)CN(S(=O)(=O)c2ccccc2)CC1C(=O)NCc1ccc(-c2ccncc2)cc1 (stereo not drawn) [Example 42-3, 1-isobutyryl-6-methyl-4-(phenylsulfonyl)-N-(4-(pyridin-4-yl)benzyl)piperazine-2-carboxamide]
8710 | 75.9 | COc1cccc(S(=O)(=O)N2CCN(C(=O)c3cccs3)C(C(=O)NCc3ccc4ccccc4c3)C2)c1 (stereo not drawn) [Example 89-8, 4-[(3-methoxyphenyl)sulfonyl]-N-[(naphthalen-2-yl)methyl]-1-(thiophene-2-carbonyl)piperazine-2-carboxamide]
